{"source": "paper PMC7311426", "about": "“An amphipathic peptide with antibiotic activity against multidrug-resistant Gram-negative bacteria” (Nature Communications, 2020)", "test_in_all_cases": "microbe, parasite or virus in culture", "key": {"E. coli": {"system": "E. coli", "details": "E. coli ATCC 25922 FDA control strain; MHB; mode of 6 independent biological replicates", "protocol": "(§1) Antimicrobial activity of arenicin-3 and its analogs was tested against a panel of bacterial and yeast strains by in vitro broth microdilution (BMD) assay with minimum inhibitory concentration (MIC) determination. Strains were purchased from American Type Culture Collection (ATCC) or obtained from clinical collaborators (full strain profiles provided in Supplementary Data 3). All peptides were prepared in Ringer’s acetate solution, and subsequently diluted fresh in water for each independent assay.\n(§2) Assays were performed in Mueller Hinton broth (MHB; BD, Cat. No. 211443) for bacteria, and yeast extract-peptone dextrose (YPD; Sigma-Aldrich, Y1500) for yeast. The concentrations of the peptides and comparator antibiotics/antifungals in the assay wells ranged from either 128 or 64 μg mL^−1, to 0.06 or 0.03 μg mL^−1 as a 12-point dose response plated as a 2-fold dilution series across the wells of the plate in duplicate for each independent biological replicate, using a final cell density of 5 × 10^5 CFU mL^−1 and 2.5 × 10^3 CFU mL^−1 for bacteria and yeast respectively. Final assay volumes were 100 μL per well with MICs determined visually following 18-20 h incubation at 37 °C for bacteria, 24 h incubation at 35 °C for Candida albicans, and 24 h incubation at 35 °C with resazurin addition (0.006%; Sigma-Aldrich, Cat # R7017) for a further 3 h for Cryptococcus neoformans, without shaking. Additional bacterial and yeast susceptibility assays were performed in Cation-Adjusted Mueller Hinton Broth (CAMHB; BD, Cat No. 212322) and Roswell Park Memorial Institute (RPMI) 1640 culture medium (Life Technologies Australia, Cat No. 21870092), respectively, as recommended by CLSI guidelines (M07 11th ed[36] and M27 4th ed[37]). […] Agarose MICs were determined in MHB with 1% agarose (Bioline molecular grade; Cat no: BIO-41025; high purity, high gel strength). All experiments were performed a minimum of six replicates (n ≥ 6)."}, "P. aeruginosa": {"system": "P. aeruginosa", "details": "P. aeruginosa ATCC 27853 control strain; MHB; mode of 6 replicates", "protocol": "as §1, §2"}, "A. baumannii": {"system": "A. baumannii", "details": "A. baumannii ATCC 19636 type strain; MHB; mode of 6 replicates", "protocol": "as §1, §2"}, "S. aureus": {"system": "S. aureus", "details": "S. aureus ATCC 25923 MSSA; MHB; mode of 6 replicates", "protocol": "as §1, §2"}, "K. pneumoniae": {"system": "K. pneumoniae", "details": "K. pneumoniae ATCC 13883 type strain (polymyxin/colistin heteroresistant); MHB; mode of 6 replicates", "protocol": "as §1, §2"}, "[1]": {"system": "A. baumannii clinical isolates", "protocol": "The in vitro activity of AA139 and comparator antimicrobials was determined in two panels of clinical isolates of E. coli, K. pneumoniae, P. aeruginosa, and A. baumannii (Supplementary Table 3), and MIC90 presented. The US panel consisted of 331 clinical isolates from 2010 to 2012. It was tested by BMD in accordance with the CLSI guidelines (M07-A9, 2012)[39]. […] AA139 was diluted in 0.01% acetic acid/0.1% bovine serum albumin. Sterile polypropylene culture cluster round-bottom 96-well plates (Costar # 3879) were used for testing. The worldwide panel consisted of 445 clinical isolates from 2011 to 2013, geographically divided into Asia, Europe, North America, and Rest of World (Middle East, Latin America, Africa, and South Pacific) with each region representing ~25% of the isolates. It was tested by broth microdilution in accordance with the CLSI guidelines (M07-A9, 2012)[39]. […] The test media was CAMHB (Becton Dickinson). AA139 and polymyxin B were tested in media supplemented with 0.002% Tween 80 (Calbiochem). MIC90 values were calculated for all or subsets of the isolates. MIC correlation between AA139 and colistin was analyzed with data from the US panel."}}, "note": "Residues, ends and D or L forms follow the SMILES beside them."}
{"compound": "CC(C)[C@@H]1NC(=O)[C@H](Cc2ccc(O)cc2)NC(=O)[C@H](Cc2c[nH]c3ccccc23)NC(=O)[C@@H](NC(=O)[C@H](Cc2ccccc2)NC(=O)CN)CSSC[C@@H](C(N)=O)NC(=O)[C@H](CCCNC(=N)N)NC(=O)[C@H](CCCNC(=N)N)NC(=O)[C@H](Cc2ccc(O)cc2)NC(=O)[C@@H]2CSSC[C@H](NC1=O)C(=O)N[C@@H](C)C(=O)N[C@@H](CCCNC(=N)N)C(=O)N[C@@H](CCCNC(=N)N)C(=O)N[C@@H](CC(N)=O)C(=O)NCC(=O)N[C@@H](C)C(=O)N[C@@H](CCCNC(=N)N)C(=O)N[C@@H](C(C)C)C(=O)N2", "note": "[AB0017] (HELM PEPTIDE1{G.F.C.W.Y.V.C.A.R.R.N.G.A.R.V.C.Y.R.R.C.[am]}$PEPTIDE1,PEPTIDE1,3:R3-20:R3|PEPTIDE1,PEPTIDE1,7:R3-16:R3$$$V2.0)", "values": [{"measurement": "BMD MIC", "setting": "E. coli", "value": 0.5, "unit": "mg/L"}, {"measurement": "BMD MIC", "setting": "P. aeruginosa", "value": 0.25, "unit": "mg/L"}, {"measurement": "BMD MIC", "setting": "A. baumannii", "value": 1, "unit": "mg/L"}, {"measurement": "BMD MIC", "setting": "S. aureus", "value": 64, "unit": "mg/L"}, {"measurement": "BMD MIC", "setting": "K. pneumoniae", "value": 0.125, "unit": "mg/L"}]}
{"compound": "C[C@@H](O)[C@H]1C(=O)N2C(C(=O)O)=C(S[C@@H]3CN[C@H](C(=O)N(C)C)C3)[C@H](C)[C@H]12", "note": "[Mero]", "values": [{"measurement": "MIC", "setting": "[1]; US isolates 2010-2012, isolate CID 1919446, Rep 1", "value": 1, "unit": "mg/L"}, {"measurement": "MIC", "setting": "[1]; US isolates 2010-2012, isolate CID 1919446, Rep 2", "value": 2, "unit": "mg/L"}, {"measurement": "MIC", "setting": "[1]; US isolates 2010-2012, isolate CID 1919519, Rep 1", "value": "> 16", "unit": "mg/L"}, {"measurement": "MIC", "setting": "[1]; US isolates 2010-2012, isolate CID 1919519, Rep 2", "value": "> 16", "unit": "mg/L"}, {"measurement": "MIC", "setting": "[1]; US isolates 2010-2012, isolate CID 1919714, Rep 1", "value": "> 16", "unit": "mg/L"}, {"measurement": "MIC", "setting": "[1]; US isolates 2010-2012, isolate CID 1919714, Rep 2", "value": "> 16", "unit": "mg/L"}, {"measurement": "MIC", "setting": "[1]; US isolates 2010-2012, isolate CID 1919942, Rep 1", "value": 1, "unit": "mg/L"}, {"measurement": "MIC", "setting": "[1]; US isolates 2010-2012, isolate CID 1919942, Rep 2", "value": 1, "unit": "mg/L"}, {"measurement": "MIC", "setting": "[1]; US isolates 2010-2012, isolate CID 1930670, Rep 1", "value": 16, "unit": "mg/L"}, {"measurement": "MIC", "setting": "[1]; US isolates 2010-2012, isolate CID 1930670, Rep 2", "value": "> 16", "unit": "mg/L"}, {"measurement": "MIC", "setting": "[1]; US isolates 2010-2012, isolate CID 1930676, Rep 1", "value": 0.5, "unit": "mg/L"}, {"measurement": "MIC", "setting": "[1]; US isolates 2010-2012, isolate CID 1930676, Rep 2", "value": 0.5, "unit": "mg/L"}, {"measurement": "MIC", "setting": "[1]; US isolates 2010-2012, isolate CID 2727597, Rep 1", "value": "> 16", "unit": "mg/L"}, {"measurement": "MIC", "setting": "[1]; US isolates 2010-2012, isolate CID 2727597, Rep 2", "value": "> 16", "unit": "mg/L"}, {"measurement": "MIC", "setting": "[1]; US isolates 2010-2012, isolate CID 2727598, Rep 1", "value": "> 16", "unit": "mg/L"}, {"measurement": "MIC", "setting": "[1]; US isolates 2010-2012, isolate CID 2727598, Rep 2", "value": "> 16", "unit": "mg/L"}, {"measurement": "MIC", "setting": "[1]; US isolates 2010-2012, isolate CID 2727898, Rep 1", "value": 0.5, "unit": "mg/L"}, {"measurement": "MIC", "setting": "[1]; US isolates 2010-2012, isolate CID 2727898, Rep 2", "value": 0.5, "unit": "mg/L"}, {"measurement": "MIC", "setting": "[1]; US isolates 2010-2012, isolate CID 2728115, Rep 1", "value": "> 16", "unit": "mg/L"}, {"measurement": "MIC", "setting": "[1]; US isolates 2010-2012, isolate CID 2728115, Rep 2", "value": "> 16", "unit": "mg/L"}, {"measurement": "MIC", "setting": "[1]; US isolates 2010-2012, isolate CID 2728119, Rep 1", "value": "> 16", "unit": "mg/L"}, {"measurement": "MIC", "setting": "[1]; US isolates 2010-2012, isolate CID 2728119, Rep 2", "value": "> 16", "unit": "mg/L"}, {"measurement": "MIC", "setting": "[1]; US isolates 2010-2012, isolate CID 2728650, Rep 1", "value": 16, "unit": "mg/L"}, {"measurement": "MIC", "setting": "[1]; US isolates 2010-2012, isolate CID 2728650, Rep 2", "value": 16, "unit": "mg/L"}, {"measurement": "MIC", "setting": "[1]; US isolates 2010-2012, isolate CID 2728663, Rep 1", "value": 1, "unit": "mg/L"}, {"measurement": "MIC", "setting": "[1]; US isolates 2010-2012, isolate CID 2728663, Rep 2", "value": 2, "unit": "mg/L"}, {"measurement": "MIC", "setting": "[1]; US isolates 2010-2012, isolate CID 2732481, Rep 1", "value": "> 16", "unit": "mg/L"}, {"measurement": "MIC", "setting": "[1]; US isolates 2010-2012, isolate CID 2732481, Rep 2", "value": "> 16", "unit": "mg/L"}, {"measurement": "MIC", "setting": "[1]; US isolates 2010-2012, isolate CID 2732486, Rep 1", "value": "> 16", "unit": "mg/L"}, {"measurement": "MIC", "setting": "[1]; US isolates 2010-2012, isolate CID 2732486, Rep 2", "value": "> 16", "unit": "mg/L"}, {"measurement": "MIC", "setting": "[1]; US isolates 2010-2012, isolate CID 2762740, Rep 1", "value": "> 16", "unit": "mg/L"}, {"measurement": "MIC", "setting": "[1]; US isolates 2010-2012, isolate CID 2762740, Rep 2", "value": "> 16", "unit": "mg/L"}, {"measurement": "MIC", "setting": "[1]; US isolates 2010-2012, isolate CID 2801947, Rep 1", "value": 0.25, "unit": "mg/L"}, {"measurement": "MIC", "setting": "[1]; US isolates 2010-2012, isolate CID 2801947, Rep 2", "value": 0.25, "unit": "mg/L"}, {"measurement": "MIC", "setting": "[1]; US isolates 2010-2012, isolate CID 2801949, Rep 1", "value": 1, "unit": "mg/L"}, {"measurement": "MIC", "setting": "[1]; US isolates 2010-2012, isolate CID 2801949, Rep 2", "value": 0.25, "unit": "mg/L"}, {"measurement": "MIC", "setting": "[1]; US isolates 2010-2012, isolate CID 2802027, Rep 1", "value": "> 16", "unit": "mg/L"}, {"measurement": "MIC", "setting": "[1]; US isolates 2010-2012, isolate CID 2802027, Rep 2", "value": "> 16", "unit": "mg/L"}, {"measurement": "MIC", "setting": "[1]; US isolates 2010-2012, isolate CID 2802028, Rep 1", "value": "> 16", "unit": "mg/L"}, {"measurement": "MIC", "setting": "[1]; US isolates 2010-2012, isolate CID 2802028, Rep 2", "value": "> 16", "unit": "mg/L"}, {"measurement": "MIC", "setting": "[1]; US isolates 2010-2012, isolate CID 2802029, Rep 1", "value": "> 16", "unit": "mg/L"}, {"measurement": "MIC", "setting": "[1]; US isolates 2010-2012, isolate CID 2802029, Rep 2", "value": "> 16", "unit": "mg/L"}, {"measurement": "MIC", "setting": "[1]; US isolates 2010-2012, isolate CID 2802031, Rep 1", "value": 1, "unit": "mg/L"}, {"measurement": "MIC", "setting": "[1]; US isolates 2010-2012, isolate CID 2802031, Rep 2", "value": 1, "unit": "mg/L"}, {"measurement": "MIC", "setting": "[1]; US isolates 2010-2012, isolate CID 2802109, Rep 2", "value": "> 16", "unit": "mg/L"}, {"measurement": "MIC", "setting": "[1]; US isolates 2010-2012, isolate CID 2802111, Rep 2", "value": "> 16", "unit": "mg/L"}, {"measurement": "MIC", "setting": "[1]; US isolates 2010-2012, isolate CID 2802187, Rep 1", "value": 1, "unit": "mg/L"}, {"measurement": "MIC", "setting": "[1]; US isolates 2010-2012, isolate CID 2802187, Rep 2", "value": 2, "unit": "mg/L"}]}
